US7605165B2, “Phenylalanine derivatives” (Ajinomoto Co., Inc., priority 2002, dated 2009)

Key:
[1] = target: T1, integrin α4β1 (Homo sapiens, UniProt P05556+P13612); experiment: Assessment of VCAM-1/α4β1 binding antagonist activity (Jurkat cells binding to VCAM-1); assay type: cell-based; settings: Jurkat human T cells binding to recombinant human VCAM-1; read-out: integrin VCAM/α4 binding antagonistic activity (IC50) α4β1
T1 construct: cell strain Jurkat (ATCC TIB-152) of human T cells, known to express integrin α4β1; endogenous in cells; host or cells: Jurkat (ATCC TIB-152), human T cells
Protocol: The capacity of a test substance antagonistic to the binding of cell strain Jurkat (ATCC TIB-152) of human T cells, known to express integrin α4β1, to VCAM-1 was determined.
(§1) 100 μl/well of a solution (500 ng/ml) of recombinant human VCAM-1 (R & D systems) solution diluted with buffer A (0.1 M NaHCO3, pH 9.6) was added to a micro titer plate having 96 wells (Nunc Maxisorp). After the incubation at 4° C. overnight, unbound VCAM-1 was removed by washing once with PBS. After completion of the washing, a buffer (buffer B) obtained by diluting Block Ace (Dainippon Pharmaceutical Co., Ltd.) with PBS to 1/4 concentration was added in an amount of 150 μl/well. After the incubation at room temperature for 1 hour, buffer B was removed and the plate was washed with PBS once.
Jurkat cells were washed with Dulbecco modified Eagle medium (SIGMA, hereinafter referred to as “DMEM”) twice and then incubated in DMEM containing 10 μg/ml of Calcein-AM (Wako Pure Chemical Industries, Ltd.) at 37° C. in dark place for 30 minutes to label with fluorescence. The cells were again suspended in a binding buffer (20 mM HEPES, DMEM containing 0.1% BSA).
(§2) 50 μl of a test substance of various concentrations obtained by the dilution with the binding buffer was added to the plate. Immediately thereafter, 50 μl (final volume: 100 μl/well) of the fluorescent Jurkat cells (4×10^6 cells/ml) were added thereto, and they were incubated in dark place at room temperature for 30 minutes. After the shaking on a plate shaker (IKA MTS-4) at 800 rpm for 30 seconds, the solution was immediately removed to remove the unbound cells. The fluorescence quantity of the bound cells remaining in the wells was determined with a fluorescent plate reader (Wallac 1420 ARVO multi-label counter) (filter excitation wave length: 485 nm, emission wave length: 535 nm). The fluorescent strength thus obtained is proportional to the number of Jurkat cells bound to VCAM-1 and remaining on the plate. The binding rate of each test material in various concentrations was determined while the fluorescent strength of the test material-free well was determined to be 100%.

[2] = target: T2, integrin α4β7 (Homo sapiens, UniProt P13612+P26010); experiment: Assessment of VCAM-1/α4β7 binding antagonistic activity (RPMI-8866 cells binding to VCAM-1); assay type: cell-based; settings: RPMI-8866 human B lymphoma cells binding to recombinant human VCAM-1, binding buffer with 4 mM MnCl2; read-out: integrin VCAM/α4 binding antagonistic activity (IC50) α4β7
T2 construct: lymphoma cell strain RPMI-8866 of human B cells, known to express integrin α4β7; endogenous in cells; host or cells: RPMI-8866, human B-cell lymphoma line
T2 sequence (P13612 34-1032): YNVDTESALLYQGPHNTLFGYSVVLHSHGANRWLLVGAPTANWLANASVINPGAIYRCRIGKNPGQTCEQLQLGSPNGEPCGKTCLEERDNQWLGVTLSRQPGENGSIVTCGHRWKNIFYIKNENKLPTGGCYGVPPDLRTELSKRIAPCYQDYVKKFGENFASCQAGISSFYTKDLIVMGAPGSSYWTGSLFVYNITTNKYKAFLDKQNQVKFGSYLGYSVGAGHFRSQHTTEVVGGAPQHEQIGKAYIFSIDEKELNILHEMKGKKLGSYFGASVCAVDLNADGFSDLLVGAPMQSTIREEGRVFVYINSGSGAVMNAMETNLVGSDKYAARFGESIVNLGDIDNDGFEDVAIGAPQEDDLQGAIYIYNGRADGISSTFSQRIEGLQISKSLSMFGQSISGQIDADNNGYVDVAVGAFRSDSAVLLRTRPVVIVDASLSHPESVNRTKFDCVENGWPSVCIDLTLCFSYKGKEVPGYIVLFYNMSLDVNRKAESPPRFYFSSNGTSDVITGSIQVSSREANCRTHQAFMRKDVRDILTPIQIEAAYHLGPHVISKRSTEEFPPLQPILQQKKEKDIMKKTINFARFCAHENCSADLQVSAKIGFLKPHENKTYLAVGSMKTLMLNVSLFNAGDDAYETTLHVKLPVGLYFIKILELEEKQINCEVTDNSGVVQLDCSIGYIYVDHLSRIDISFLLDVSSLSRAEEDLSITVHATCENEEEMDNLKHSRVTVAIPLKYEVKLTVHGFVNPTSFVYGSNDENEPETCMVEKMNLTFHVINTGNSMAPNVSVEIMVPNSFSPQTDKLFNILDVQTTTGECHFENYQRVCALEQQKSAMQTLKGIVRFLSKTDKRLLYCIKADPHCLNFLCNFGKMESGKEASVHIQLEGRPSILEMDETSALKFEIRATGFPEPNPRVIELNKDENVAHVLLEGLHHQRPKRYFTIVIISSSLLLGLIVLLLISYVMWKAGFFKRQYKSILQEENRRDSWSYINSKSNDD
T2 sequence (P26010 20-798): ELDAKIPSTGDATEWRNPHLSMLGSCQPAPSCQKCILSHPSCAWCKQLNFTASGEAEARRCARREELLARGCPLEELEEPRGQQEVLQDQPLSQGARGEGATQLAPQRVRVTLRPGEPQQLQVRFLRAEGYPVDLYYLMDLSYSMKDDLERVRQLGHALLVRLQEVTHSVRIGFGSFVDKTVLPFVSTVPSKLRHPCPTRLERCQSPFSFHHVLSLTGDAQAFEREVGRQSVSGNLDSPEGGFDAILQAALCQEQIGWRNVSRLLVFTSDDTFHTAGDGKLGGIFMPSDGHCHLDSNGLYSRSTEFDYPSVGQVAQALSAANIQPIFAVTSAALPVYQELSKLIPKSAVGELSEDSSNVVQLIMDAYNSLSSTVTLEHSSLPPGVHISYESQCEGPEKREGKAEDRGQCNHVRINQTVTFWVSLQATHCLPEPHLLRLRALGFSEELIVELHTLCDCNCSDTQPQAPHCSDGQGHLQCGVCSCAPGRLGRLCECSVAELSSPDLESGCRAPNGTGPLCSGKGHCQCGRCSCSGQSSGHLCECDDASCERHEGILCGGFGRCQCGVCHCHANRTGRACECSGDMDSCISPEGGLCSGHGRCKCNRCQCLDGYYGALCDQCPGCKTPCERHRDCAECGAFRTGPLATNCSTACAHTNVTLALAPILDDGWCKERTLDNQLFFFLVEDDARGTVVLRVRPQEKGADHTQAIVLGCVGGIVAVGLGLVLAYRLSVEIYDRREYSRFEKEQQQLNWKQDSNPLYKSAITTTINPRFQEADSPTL
Protocol: The capacity of a test substance antagonistic to the binding of lymphoma cell strain RPMI-8866 of human B cells, known to express integrin α4β7, to VCAM-1 was determined.
as §1
RPMI-8866 cells were washed with DMEM twice and incubated in Dulbecco modified Eagle medium containing 10 μg/ml of Calcein-AM (Wako Pure Chemical Industries, Ltd.) (SIGMA, hereinafter referred to as “DMEM”) in dark place at 37° C. for 30 minutes to label with fluorescence. The cells were again suspended in a binding buffer (20 mM HEPES, DMEM containing 0.1% BSA) containing 4 mM of MnCl2.
as §2, with “RPMI-8866” for “Jurkat”

T1 sequence (P05556 21-798, one chain of several): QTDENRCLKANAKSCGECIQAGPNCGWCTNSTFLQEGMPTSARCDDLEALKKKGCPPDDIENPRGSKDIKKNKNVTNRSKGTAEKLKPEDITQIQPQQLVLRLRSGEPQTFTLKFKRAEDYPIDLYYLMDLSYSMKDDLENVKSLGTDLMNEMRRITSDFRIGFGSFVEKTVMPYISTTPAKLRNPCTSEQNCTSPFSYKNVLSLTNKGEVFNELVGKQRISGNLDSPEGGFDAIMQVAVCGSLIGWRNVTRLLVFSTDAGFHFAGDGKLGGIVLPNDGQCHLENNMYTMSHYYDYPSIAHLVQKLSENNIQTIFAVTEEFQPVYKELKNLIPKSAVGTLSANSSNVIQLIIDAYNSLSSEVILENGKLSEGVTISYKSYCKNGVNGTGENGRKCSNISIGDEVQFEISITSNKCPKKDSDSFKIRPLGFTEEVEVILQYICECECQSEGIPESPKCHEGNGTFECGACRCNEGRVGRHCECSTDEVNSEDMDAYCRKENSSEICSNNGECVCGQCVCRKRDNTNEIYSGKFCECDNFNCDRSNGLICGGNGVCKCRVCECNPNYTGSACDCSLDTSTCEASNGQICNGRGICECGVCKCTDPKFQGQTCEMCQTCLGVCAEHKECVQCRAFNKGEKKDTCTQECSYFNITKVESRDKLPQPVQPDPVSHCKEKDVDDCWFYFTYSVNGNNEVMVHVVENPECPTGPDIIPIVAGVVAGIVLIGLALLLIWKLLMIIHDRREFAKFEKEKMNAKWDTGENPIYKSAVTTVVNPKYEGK

IC50 [1]	IC50 [2]	SMILES
158 nM	20 nM	COc1ccc2nnn(-c3ccc(C[C@H](NC(=O)c4c(Cl)cccc4Cl)C(=O)O)cc3)c(=O)c2c1 [Reference Example 84]
37 nM	1.1 nM	Cn1c(=O)n(-c2ccc(C[C@H](NC(=O)c3c(Cl)cccc3Cl)C(=O)O)cc2)c(=O)c2cc([N+](C)(C)C)ccc21 [Reference Example 112]
190 nM	27 nM	O=C(N[C@@H](Cc1ccc(-n2c(=O)c3ccccc3n(Cc3c(Cl)cccc3Cl)c2=O)cc1)C(=O)O)c1c(Cl)cccc1Cl [Reference Example 114]
34 nM	0.2 nM	Cc1cccc(Cl)c1C(=O)N[C@@H](Cc1ccc(-n2c(=O)c3ccccc3n(C)c2=O)cc1)C(=O)O [Reference Example 162]
1070 nM	31.6 nM	CCC(C)n1c(=O)n(-c2ccc(C[C@H](NC(=O)c3c(Cl)cccc3Cl)C(=O)O)cc2)c(=O)c2cc([N+](=O)[O-])ccc21 (stereo partly drawn) [compound 58]
192 nM	13 nM	O=C(N[C@@H](Cc1ccc(-n2c(=O)[nH]c3c(Cl)ccc(Cl)c3c2=O)cc1)C(=O)O)c1c(Cl)cccc1Cl [compound 76]
440 nM	18 nM	O=C(N[C@@H](Cc1ccc(-n2c(=O)[nH]c3ncccc3c2=O)cc1)C(=O)O)c1c(Cl)cccc1Cl [compound 79]
230 nM	25 nM	O=C(N[C@@H](Cc1ccc(-n2nnc3ccc(F)cc3c2=O)cc1)C(=O)O)c1c(Cl)cccc1Cl [compound 85]
1340 nM	5.7 nM	CCOc1nc2ccc(F)cc2c(=O)n1-c1ccc(C[C@H](NC(=O)c2c(Cl)cccc2Cl)C(=O)O)cc1 [compound 92]
14 nM	0.8 nM	COCC(=O)Nc1ccc2c(c1)c(=O)n(-c1ccc(C[C@H](NC(=O)c3c(Cl)cccc3Cl)C(=O)O)cc1)c(=O)n2C [compound 105]
44 nM	2.8 nM	Cn1c(=O)n(-c2ccc(C[C@H](NC(=O)c3c(Cl)cccc3Cl)C(=O)O)cc2)c(=O)c2cc(NC(=O)C(C)(C)C)ccc21 [compound 106]
56 nM	4.3 nM	CCN(C)c1ccc2c(c1)c(=O)n(-c1ccc(C[C@H](NC(=O)c3c(Cl)cccc3Cl)C(=O)O)cc1)c(=O)n2C [compound 109]
55 nM	4.1 nM	Cn1c(=O)n(-c2ccc(C[C@H](NC(=O)c3c(Cl)cccc3Cl)C(=O)O)cc2)c(=O)c2cc(N3CCCC3)ccc21 [compound 110]
760 nM	36 nM	O=C(N[C@@H](Cc1ccc(-n2c(=O)c3ccccc3n(Cc3ccc(Cl)c(Cl)c3)c2=O)cc1)C(=O)O)c1c(Cl)cccc1Cl [compound 115]

The remaining lines, values behind:

SMILES	IC50 [1]	IC50 [2]
O=C(N[C@@H](Cc1ccc(-n2c(=O)c3ccccc3n(Cc3c(F)cccc3F)c2=O)cc1)C(=O)O)c1c(Cl)cccc1Cl [Example 4]	26 nM	2.8 nM
N#CCn1c(=O)n(-c2ccc(C[C@H](NC(=O)c3c(Cl)cccc3Cl)C(=O)O)cc2)c(=O)c2ccccc21 [Example 6]	80 nM	3.3 nM
CN(C)c1ccc2c(c1)c(=O)n(-c1ccc(C[C@H](NC(=O)c3c(Cl)cccc3Cl)C(=O)O)cc1)c(=O)n2C [Reference Example 108]	57 nM	3.3 nM
Cn1c(=O)n(-c2ccc(C[C@H](NC(=O)c3c(Cl)cccc3Cl)C(=O)NO)cc2)c(=O)c2ccccc21 [Reference Example 211]	250 nM	20 nM
O=C(N[C@@H](Cc1ccc(-n2c(=O)[nH]c3cc(F)ccc3c2=O)cc1)C(=O)O)c1c(Cl)cccc1Cl [compound 78]	180 nM	9.6 nM
Cc1cccc2nnn(-c3ccc(C[C@H](NC(=O)c4c(Cl)cccc4Cl)C(=O)O)cc3)c(=O)c12 [compound 89]	41 nM	2.7 nM
CCOc1nc2cccc(C)c2c(=O)n1-c1ccc(C[C@H](NC(=O)c2c(Cl)cccc2Cl)C(=O)O)cc1 [compound 94]	1150 nM	6 nM
COc1ccc2c(c1)N(C)C(=O)N(c1ccc(C[C@H](NC(=O)c3c(Cl)cccc3Cl)C(=O)O)cc1)S2(=O)=O [compound 99]	12 nM	2 nM
CN1C(=O)N(c2ccc(C[C@H](NC(=O)c3c(Cl)cccc3Cl)C(=O)O)cc2)S(=O)(=O)c2ccc(C(F)(F)F)cc21 [compound 100]	11 nM	2.4 nM
O=C(N[C@@H](Cc1ccc(-n2c(=O)c3ccccc3n(Cc3ccc(Cl)cc3Cl)c2=O)cc1)C(=O)O)c1c(Cl)cccc1Cl [compound 116]	450 nM	35 nM
